The source of these data is a melting point compilation (Tetko et al.; mined from patent text by program, amines drawn as free bases though some values may be those of a salt).

Turning to `CC(C)C(O)(Cn1cncn1)c1ccc(C#CI)cc1` (configuration not stated), the melting point was 122 °C.

`COc1ccc2c(c1)cc(/C=C/c1ccccc1Cl)n2CCC#N`: the melting point was in the range of 136 to 138 °C.

Regarding `O=C(Cn1nc2ccccc2n1)Nc1ccc(-n2nc(C(F)(F)F)cc2C2CC2)cc1`, the melting point fell in the range of 188 to 192 °C.

For the compound `O=C(O)CCCc1cc2nc(Cl)ccc2n1S(=O)(=O)c1cccc(-c2ccccc2)c1`, the melting point was in the range of 147 to 149 °C.

`CCOC(=O)C1=C(C)Nc2ncn(C(C)C)c(=O)c2C1c1ccccc1F` (configuration not stated): the melting point lay in the range of 178 to 180 °C.

In turn, `CCN(CC)C(=O)c1ccc(Cl)c(C2(C)C(=O)N(Cc3ccc(OC)cc3OC)c3ccc(Cl)cc32)c1` (configuration not stated) registered a melting point of 86 °C.

The compound `O=C(O)CCc1ccc(-c2nc(=O)c3ccccc3s2)nc1` had a melting point of 232 °C.

In turn, `COC(=O)[C@@H](C)N[C@@H](CC(C)(C)C)C(=O)O` had a melting point of 120 to 124 °C.

With `C(#COCC1CCN(Cc2ccccc2)CC1)Cc1ccccc1`, the melting point was 120 to 123 °C.

In turn, `CC(=O)OCC1OC(n2cc(C)c(NO)nc2=O)CC1F` (configuration not stated) displayed a melting point of 180 to 181 °C.

For `CNC(=S)NCCSCc1[nH]cnc1C`, the melting point is 150 to 152 °C.

On to `O=c1[nH]c(=S)n2c3c1cnn3C(c1ccccc1)=CC2`, for which the melting point lay in the range of 289 to 291 °C.

`O=C(O)C1CCN(Cc2cc(Br)cc3[nH]c(=O)c(=O)[nH]c23)CC1` registered a melting point of more than 300 °C.

As for `COc1c(C)c(NC(=O)NCCO)c(C)c2c1OCC2c1ccc(C(C)C)cc1` (configuration not stated), the melting point lay within 127 to 129 °C.

Take `COC(=O)c1ccc2c(=O)n(CC(C)C)c(CNC(=O)OC(C)(C)C)c(-c3cccs3)c2c1`: the melting point lay within 170 to 171 °C.

`CCCCCN1C(=O)C(c2ccc3c(c2)OCO3)(c2cc3c(cc2O)OCO3)c2ccccc21` (configuration not stated): the melting point was 75 to 76 °C.

On to `CCn1nc(-c2cccc(F)c2)c(C(C)=O)c(Nc2cccc3ncccc23)c1=O`, for which the melting point was 205 to 207 °C.

In the case of `Cc1cccc2ncc(C(=O)Nc3ccc(Cl)cc3)c(=O)n12`, the melting point is 202 to 204 °C.

`O=C1c2ccccc2S(=O)(=O)N1CCCCCCOc1ccccc1` registered a melting point of 64 to 66 °C.

`CC(C)(C#N)N1CCN(c2ccc(N3CC(CCC(N)=O)OC3=O)cc2F)CC1` (configuration not stated) yielded a melting point of 139 to 143 °C.

Regarding `CS(=O)(=O)c1ccc(-c2cnn(CC(F)(F)F)c(=O)c2NC2CCC2)cc1`, the melting point is 169 to 172 °C.

Compound `O=C(c1c(F)cccc1F)N1CN(c2ccccc2)CN(c2ccc(Cl)cc2)C1=O` returned a melting point of 166 to 168 °C.

`CC(C)(C)OC(=O)CC1CC(C=O)OC(C)(C)O1` (configuration not stated) gave a melting point of 71 to 73 °C.

Take `CCCCCC(CCC(=O)c1ccc(OCC)cc1)C(=O)O` (configuration not stated): the melting point was found to be 61 °C.

Compound `COC1CN(CCC(C(=O)N(C)C)(c2ccccc2)c2ccccc2)CCC1NC(=O)c1ccccc1` (configuration not stated) yielded a melting point of 147 °C.

`O=C(O)COc1ccc2cc(CNC(=O)c3cnn(-c4ccc(Cl)cc4)c3C(F)(F)F)ccc2c1` displayed a melting point of 189 to 191 °C.

In the case of `NC(=O)c1cccc(OCCF)c1OCCF`, the melting point lay in the range of 100 to 101 °C.

Compound `Cc1ccc(S(=O)(=O)OCCN2Cc3ccccc3C2=O)cc1` gave a melting point of 75 °C.

`Cc1cc(C(F)(F)F)nn1CC(=O)N1CCC(c2nc(C3=NOC(c4ccccc4Cl)C3)cs2)CC1` (configuration not stated) yielded a melting point of 115 to 122 °C.

`CS(=O)(=O)c1ccc(-c2ccc(Br)n2-c2ccc(F)cc2)cc1` displayed a melting point of 174 to 176 °C.

`COC(=O)CCC(=O)c1cc2cc(OC)c(OC)cc2o1` registered a melting point of 140 to 142 °C.

Regarding `O=C(O)COc1cccc2c1CCc1sc(S(=O)(=O)CC=Cc3ccccc3)nc1-2`, the melting point was in the range of 210 to 214 °C.

On to `CC(C)c1[nH]n(-c2c(Cl)cncc2Cl)c2nc(Cc3ccc(CN4CCCC4)c(O)c3)nc(=O)c1-2`, for which the melting point turned out to be 209 °C.

Take `CC(C)(C)OC(=O)N[C@@H](Cc1ccc(O)cc1)C(=O)NCC(=O)NCC(=O)O`: the melting point fell in the range of 92 to 94 °C.

For `Nc1nc(NC(=O)c2cccnc2)nc(-c2ccc3ccccc3c2O)n1`, the melting point was in the range of 301 to 302 °C.

Compound `O=c1oc2ccccc2c2c1-c1ccccc1OC2` had a melting point of 202 °C.

The compound `CC(=O)Nc1ccc(SCc2nc3ccccc3s2)cc1` came in with a melting point of 147 to 149 °C.

Regarding `C=CCOc1cc(C(=O)O)cc([N+](=O)[O-])c1C(=O)c1ccccc1`, the melting point is 192 to 193 °C.

`COc1ccc(C(=O)C=Cc2ccc(N(C)C)cc2)c(OC)c1OC` showed a melting point of 88 to 89 °C.

As to `CC=C(NC(=O)CCC1CCCC1)C(=O)O`, the melting point fell in the range of 180 to 182 °C.

In turn, `COc1cc(C=O)ccc1OCc1coc(-c2ccccc2)n1` registered a melting point of 119 to 120 °C.

Consider `COC(=O)c1cc(C2OC(=O)CC(C)O2)cnc1C1=NC(C)(C(C)C)C(=O)N1` (configuration not stated), for which the melting point is 65 to 75 °C.

The compound `CCCCCCCCCCCCCCCCCCOc1cc(OCCCOc2ccccc2)cc(C(=O)O)c1` yielded a melting point of 79 to 81 °C.

As for `CCOC(=O)c1c(C)nc(Cl)c([N+](=O)[O-])c1NC(C)(C)C`, the melting point is 35 to 36 °C.

Compound `O=C(CCCCCCCCCCCCC(=O)Oc1cc(O)cc(O)c1)Oc1cc(O)cc(O)c1` yielded a melting point of 140 to 145 °C.

`CC(=O)NC[C@@H]1CCCc2cc(Sc3ccccc3)cc(F)c21` returned a melting point of 94.6 to 95.9 °C.

As to `COP(=O)(CC(COc1cccc(C(F)(F)F)c1)=NNC(N)=O)OC`, the melting point was in the range of 132 to 133 °C.

The compound `O=C1C2C(C(=O)N1Cc1ccccc1)C2[N+](=O)[O-]` (configuration not stated) had a melting point of 108 to 109 °C.

`CC(=O)Nc1ccc(C(=O)N(CCN2CCC(C(=O)c3ccc(F)cc3)CC2)c2ccc(O)cc2)cc1` had a melting point of 133 to 137 °C.

`CCCCCCCCCC(=O)Nc1ccc(S(=O)(=O)Nc2nnc(CC(=O)O)s2)cc1` registered a melting point of 190 to 191 °C.

Compound `CC(C)(C)OC(=O)N[C@H]1CCCC[C@@H]1O` returned a melting point of 103 to 105 °C.

`COc1cc(OC)c2c(=O)[nH]c(-c3ccc(OC)c(-c4ccc(C(=O)N(C)C)cc4C)n3)nc2c1` had a melting point of 248 to 251 °C.

As to `N=c1[nH]c2ccc(Cl)cc2c2nc(C3CCCO3)nn12` (configuration not stated), the melting point lay in the range of 203 to 206 °C.

For `O=C(O)c1cc2cc([N+](=O)[O-])ccc2[nH]c1=O`, the melting point was more than 310 °C.

Consider `c1cc(C2CC(c3ccncn3)CC(c3ccncn3)C2)ncn1` (configuration not stated), for which the melting point lay in the range of 126 to 128 °C.

Compound `CCCCS(=O)(=O)NC(CNS(=O)(=O)c1cccc(C(=O)C2CCC3(CCNCC3)CC2)c1)C(=O)O` (configuration not stated) displayed a melting point of 225 to 235 °C.

Compound `CN(C)C=Nc1snc(C#N)c1C#N` had a melting point of 173 °C.

Consider `Cc1cc(C)c(C(=O)c2ccccc2)c(OCC(O)CNC(C)C)c1C` (configuration not stated), for which the melting point was in the range of 121 to 123 °C.

As to `CCCC1CCC(C2CCC(OCCCO)CC2)CC1` (configuration not stated), the melting point was in the range of 110 to 111 °C.

Turning to `O=C1CCCCCCCCCCC(O)CCCO1` (configuration not stated), the melting point was 59 to 61 °C.

`O=C1NN=C(c2ccc(NC(=O)C(F)(F)F)cc2)C2CC12` (configuration not stated) came in with a melting point of 242 to 243 °C.

Compound `Fc1ccc2c(C3CCNCC3)n[nH]c2c1` registered a melting point of 214 to 216 °C.

With `CC(C)CC(NC(=O)C(NC(=O)OCc1ccccc1)C(C(=O)O)C(C)(C)C)C(=O)NC(CCCCNC(=O)OC(C)(C)C)C(=O)O` (configuration not stated), the melting point lay within 173 to 174 °C.

As to `CCOC(=O)C1=C(C)N(Cc2ccccc2)C(C)=C(C(=O)OCC)C1c1ccc(Br)cc1`, the melting point fell in the range of 168 to 169 °C.

`Nc1ccc(S(=O)(=O)NCCc2ccccc2)cc1` displayed a melting point of 114 °C.

`CN1CCc2cc(Cl)c(NC=O)cc2[C@@H](c2ccccc2)C1`: the melting point is 135 to 136 °C.

Regarding `CCCc1c(OCc2cccc(OCc3ccc4ccccc4n3)c2)ccc2c(=O)cc(C(=O)OCC)oc12`, the melting point lay in the range of 120 to 121 °C.

Turning to `CC1CCCCC1NC(=O)C1=C(C(=O)Nc2cc(OC3CCCC3)c(Cl)cc2F)CCCC1` (configuration not stated), the melting point lay within 192 to 195 °C.

Regarding `O=C1NC(=O)C(S(=O)(=O)c2ccccc2)S1` (configuration not stated), the melting point lay in the range of 130 to 133 °C.

Take `C=CC[C@H](CC(=O)OC(C)(C)C)C(=O)N[C@H](C(=O)N[C@H](COC)c1ccccc1)C(C)C`: the melting point lay in the range of 155 to 157 °C.

Turning to `Cc1nc2c(C(=O)NC(C)(C(N)=O)C(C)C)c(C(=O)O)ccc2n1Cc1ccccc1` (configuration not stated), the melting point was 145 to 150 °C.

`CC1(C)C(=O)Nc2cc3[nH]c(-c4ccc(Cl)c(Cl)c4)nc3cc21` displayed a melting point of 320 to 325 °C.

For `C(=C\C1CCCCC1)/c1nc(COc2ccc(CCCn3ccnc3)cc2)co1`, the melting point fell in the range of 62 to 63 °C.

The compound `COc1cccc(CNC(=O)c2nc3ccc(F)c(OCCc4ccc(-n5cn[nH]c5=O)cc4)c3c(=O)[nH]2)c1` yielded a melting point of 196 to 198 °C.

As for `COc1ccc(SC(=C2NCCCS2)[N+](=O)[O-])cc1`, the melting point fell in the range of 160 to 162 °C.

`O=C(O)CCNS(=O)(=O)c1ccc(N2CCC(c3ccccc3)CC2)cc1` came in with a melting point of 145 to 147 °C.

`COC(=O)C1CC(C#N)(c2ccc(OC(F)F)c(OC3CCCC3)c2)CCC1=O` (configuration not stated) registered a melting point of 109 to 110 °C.

In the case of `CC(C)(C#N)c1cc(Cn2cnnc2)cc(C(C)(C)C#N)c1`, the melting point lay in the range of 158 to 161 °C.

As to `NC(=O)[C@H]1CCC[C@H]1C(=O)O` (relative stereo), the melting point was in the range of 132 to 133 °C.

`Cc1cc(-c2ccc(C(F)(F)F)c(C)c2)cc(-c2cccc(-c3cccc(S(N)(=O)=O)c3)n2)n1` showed a melting point of more than 250 °C.

On to `O=S1(=O)N=CN(C2CC2)c2cc(F)cc(F)c21`, for which the melting point was 167 to 168 °C.

As for `CCCCc1oc2ccccc2c1C(=O)NCc1ccc2c(Br)c(OCC(=O)OC)ccc2c1`, the melting point lay within 140 to 141 °C.

`CC(C)Cc1ccc(CCc2cc3c(s2)NC(=S)C(C)N=C3c2ccccc2Cl)cc1` (configuration not stated): the melting point fell in the range of 188 to 191 °C.

In the case of `CCCCSc1cnc2c(c1)CCC(c1ccc(Cl)c(Cl)c1)O2` (configuration not stated), the melting point is 59.5 to 61 °C.

Compound `Cc1ccc(C(=O)c2cc(CN(C)CCO)c(O)c(C(C)(C)C)c2)cc1` returned a melting point of 131 to 132 °C.

Consider `CCCCCCCCCCCCCCCCOC1=C(OCCCCCCCCCCCCCCCC)c2nc3c(Br)sc(Br)c3nc21`, for which the melting point was 71.5 °C.

With `C=CCc1cc2ccc(=O)oc2c(OC)c1OC(C)=O`, the melting point was 101 to 102 °C.
